Data from ChEMBL document CHEMBL4118243, “Synthesis, molecular modelling studies and biological evaluation of new oxoeicosanoid receptor 1 agonists” (Bioorg Med Chem, 2018).

Tests used:
Oxoeicosanoid receptor 1 [1] = target: T1, Oxoeicosanoid receptor 1 (Homo sapiens, UniProt Q8TDS5); experiment: Agonist activity at human PK-tagged OXER1 expressed in CHOK1 cells assessed as EA-tagged beta-arrestin recruitment by beta-galactosidase enzyme fragment complementation assay; format: functional, cell-based
Oxoeicosanoid receptor 1 [2] = target: T1, Oxoeicosanoid receptor 1; experiment: Agonist activity at human PK-tagged OXER1 expressed in CHOK1 cells assessed as EA-tagged beta-arrestin recruitment by beta-galactosidase enzyme fragment complementation assay relative to control; format: functional, cell-based

T1 sequence (Q8TDS5 whole entry, the tested form may be a part): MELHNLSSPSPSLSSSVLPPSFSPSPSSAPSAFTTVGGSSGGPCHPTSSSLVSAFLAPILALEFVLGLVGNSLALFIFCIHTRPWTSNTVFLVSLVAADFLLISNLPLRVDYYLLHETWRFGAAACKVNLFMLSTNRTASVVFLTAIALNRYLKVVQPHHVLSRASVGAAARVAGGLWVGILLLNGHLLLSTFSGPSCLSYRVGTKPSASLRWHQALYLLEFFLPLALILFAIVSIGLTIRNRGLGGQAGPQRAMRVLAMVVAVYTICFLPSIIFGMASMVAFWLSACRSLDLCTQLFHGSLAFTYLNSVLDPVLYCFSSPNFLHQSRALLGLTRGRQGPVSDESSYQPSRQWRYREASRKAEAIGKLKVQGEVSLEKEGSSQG

SMILES	EC50 (Oxoeicosanoid receptor 1 [1]) [nM]	Emax (Oxoeicosanoid receptor 1 [2]) [%]
CC/C=C\C/C=C\C/C=C\C/C=C\C=C\C(=O)CCCC(=O)OC	2080	119
CC/C=C\C/C=C\C/C=C\C/C=C\C/C=C\C=C\C(=O)CCC(=O)O	> 100000	23
CCCCC/C=C\C/C=C\C/C=C\C=C\C(=O)CCCC(=O)OC	1540	133
CC/C=C\C/C=C\C/C=C\C/C=C\C/C=C\C=C\C(=O)CCC(=O)OC	> 100000	64

Compounds with a lower EC50 (Oxoeicosanoid receptor 1 [1]), results first:

EC50 (Oxoeicosanoid receptor 1 [1]) [nM]	Emax (Oxoeicosanoid receptor 1 [2]) [%]	SMILES
380	80	CC/C=C\C/C=C\C/C=C\C/C=C\C=C\C(=O)CCCC(=O)O
220	100	CCCCC/C=C\C/C=C\C/C=C\C=C\C(=O)CCCC(=O)O [5-OXO-ETE]
